Laboratory results reported in ChEMBL document CHEMBL5346924, “Optically activated MEK1/2 inhibitors (Opti-MEKi) as potential antimelanoma agents” (Eur J Med Chem, 2023).
Calls of active or inactive are those of the source. The calls are words filed in the database; no cut-off is given here.

Legend:
[1] = system: A-375; assay: Antiproliferative activity against human A-375 cells harboring BRAF V600E mutant assessed as cell growth inhibition incubated for 72 hrs in the absence of UV irradiation by CellTiter-Glo luminescent assay; format: functional; conditions: A-375, light or radiation study
[2] = system: A-375; assay: Antiproliferative activity against human A-375 cells harboring BRAF V600E mutant assessed as cell growth inhibition preincubated with compound for 1 hrs followed by 365 nm light irradiation for 5 mins and measured 72 hrs post compound treatment by CellTiter-Glo luminescent assay; format: functional; conditions: A-375, light or radiation study
[3] = Cytotoxicity against HEK293T cells assessed as cell growth inhibition preincubated with compound for 1 hrs followed by 365 nm light irradiation for 5 mins and measured 72 hrs post compound treatment by CellTiter-Glo luminescent assay; format: toxicity, cell-based, HEK-293T; conditions: human
[4] = system: A-375; assay: Antiproliferative activity against human A-375 cells harboring BRAF V600E mutant assessed as cell growth inhibition preincubated with compound for 1 hrs followed by UV irradiation for 1 min and measured 72 hrs post compound treatment by CellTiter-Glo luminescent assay; format: functional; conditions: A-375, light or radiation study
[5] = system: A-375; assay: Antiproliferative activity against human A-375 cells harboring BRAF V600E mutant assessed as cell growth inhibition preincubated with compound for 1 hrs followed by UV irradiation for 3 mins and measured 72 hrs post compound treatment by CellTiter-Glo luminescent assay; format: functional; conditions: A-375, light or radiation study
[6] = system: A-375; assay: Antiproliferative activity against human A-375 cells harboring BRAF V600E mutant assessed as cell growth inhibition preincubated with compound for 1 hrs followed by UV irradiation for 5 mins and measured 72 hrs post compound treatment by CellTiter-Glo luminescent assay; format: functional; conditions: A-375, light or radiation study
[7] = system: HCT-116; assay: Antiproliferative activity against human HCT-116 cells harboring KRAS G13D mutant assessed as cell growth inhibition incubated for 72 hrs in the absence of UV irradiation by CellTiter-Glo luminescent assay; format: functional; conditions: HCT-116, light or radiation study
[8] = system: HCT-116; assay: Antiproliferative activity against human HCT-116 cells harboring KRAS G13D mutant assessed as cell growth inhibition preincubated with compound for 1 hrs followed by UV irradiation for 5 mins and measured 72 hrs post compound treatment by CellTiter-Glo luminescent assay; format: functional; conditions: HCT-116, light or radiation study
[9] = system: A549; assay: Antiproliferative activity against human A549 cells harboring KRAS […] mutant assessed as cell growth inhibition incubated for 72 hrs in the absence of UV irradiation by CellTiter-Glo luminescent assay; format: functional; conditions: A549, light or radiation study
[10] = system: A549; assay: Antiproliferative activity against human A549 cells harboring KRas […] mutant assessed as cell growth inhibition preincubated with compound for 1 hrs followed by UV irradiation for 5 mins and measured 72 hrs post compound treatment by CellTiter-Glo luminescent assay; format: functional; conditions: A549, light or radiation study
[11] = Cytotoxicity against HEK293T cells assessed as cell growth inhibition incubated for 72 hrs by CellTiter-Glo luminescent assay; format: toxicity, cell-based, HEK-293T; conditions: human
[12] = system: A-375; assay: Inhibition of colony formation in human A-375 cells at 10 to 300 nM incubated for 10 days by crystal violet staining based analysis; format: functional, cell-based; conditions: dose 10-300 nM, time 10.0 day
[13] = molecular target: Mitogen-activated protein kinase; ERK1/ERK2 (Homo sapiens, UniProt P27361+P28482); assay: Inhibition of ERK1/2 phosphorylation in human A-375 cells incubated for 1 hrs in the absence of UV irradiation by Western blot analysis; format: cell-based
[14] = Stability in human blood plasma assessed as half-life; format: ADME, cell-free
[15] = Stability of the compound under 365 nm UV irradiation measured after 10 mins; format: physicochemical
[16] = Photoactivation of the compound assessed as photocleavage by measuring decay half-life in the presence of 365 nm UV irradiation by HPLC based LC-MS analysis
[17] = Photoactivation of the compound assessed as photocleavage in the presence of 365 nm UV irradiation by HPLC based LC-MS analysis
[18] = Stability of the compound in PBS-DMSO solution assessed as drug degradation measured after 12 hrs in the absence of light irradiation; format: physicochemical; conditions: read-out: Drug degradation
[19] = molecular target: Dual specificity mitogen-activated protein kinase kinase 1 (Homo sapiens, UniProt Q02750); assay: Inhibition of MEK1 (unknown origin) incubated for 1 hrs in the presence of ATP by FRET-based Z'-Lyte assay
[20] = Photoactivation of the compound assessed as fold change in caging efficiency
[21] = Photoactivation of the compound assessed as photocleavage by measuring mirdametinib recovery in the presence of 365 nm UV irradiation by HPLC based LC-MS analysis

Chain of Dual specificity mitogen-activated protein kinase kinase 1 (Q02750 whole entry): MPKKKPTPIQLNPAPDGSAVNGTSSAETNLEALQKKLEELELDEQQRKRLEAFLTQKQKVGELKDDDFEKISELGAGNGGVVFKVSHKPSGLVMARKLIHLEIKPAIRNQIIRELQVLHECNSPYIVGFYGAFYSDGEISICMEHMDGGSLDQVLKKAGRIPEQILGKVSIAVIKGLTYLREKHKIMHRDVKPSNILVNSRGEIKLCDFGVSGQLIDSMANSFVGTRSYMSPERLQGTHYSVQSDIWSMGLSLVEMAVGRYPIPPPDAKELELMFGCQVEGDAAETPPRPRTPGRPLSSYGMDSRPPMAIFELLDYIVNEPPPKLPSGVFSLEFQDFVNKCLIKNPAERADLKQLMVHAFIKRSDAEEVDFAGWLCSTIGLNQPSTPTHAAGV

Which results are given for `C[C@H](NC(=O)OC(C)(C)C)C(=O)OCc1cc2c(cc1[N+](=O)[O-])OCO2`?
GI50 [1]: > 100000 nM; GI50 [2]: > 100 nM; GI50 at 72 h [3]: > 100000 nM

With `O=C(NOC[C@H](O)CO)c1ccc(F)c(F)c1Nc1ccc(I)cc1F` [MIRDAMETINIB] as the molecule, how does the GI50 [1] read?
Its GI50 is 1.28 nM.

What about the GI50 [4] of the same molecule?
The GI50 was 1.37 nM.

And the GI50 [5]?
The GI50 was 1.59 nM.

And the GI50 [6]?
The GI50 was 1.49 nM.

And the GI50 [7]?
The GI50 was 44.7 nM.

And the GI50 [8]?
The GI50 was 52.5 nM.

And the GI50 [9]?
The GI50 was 4.94 nM.

And the GI50 [10]?
Its GI50 is 10.6 nM.

And the GI50 at 72 h [11]?
The GI50 at 72 h was over 10000 nM.

What about the inhibition [12] of the same molecule?
Its inhibition is “Active”.

And the EC50 [13]?
The EC50 was ~ 1.2 nM.

What about the half-life [14] of the same molecule?
Its half-life is over 289 min.

And the Stability [15]?
Its Stability is “Stable”.

Which GI50 [1] does the source give for `CC(OC(=O)[C@H](C)NC(=O)OC(C)(C)C)c1cc2c(cc1[N+](=O)[O-])OCO2` (some centres undefined) here?
Its GI50 is over 100000 nM.

And the GI50 [2]?
Its GI50 is over 100 nM.

And the GI50 at 72 h [3]?
Its GI50 at 72 h is over 100000 nM.

Which GI50 [1] does the source give for `C[C@H](NC(=O)OC(C)(C)C)C(=O)O` here?
Its GI50 is over 100000 nM.

And the GI50 [2]?
The GI50 was over 100 nM.

What about the GI50 at 72 h [3] of the same molecule?
Its GI50 at 72 h is over 100000 nM.

For `COc1cc(COCCONC(=O)c2ccc(F)c(F)c2Nc2ccc(I)cc2F)c([N+](=O)[O-])cc1OC`, which GI50 [1] is on record?
Its GI50 is 7130 nM.

What about the GI50 [4] of the same molecule?
Its GI50 is 43.4 nM.

And the GI50 [5]?
Its GI50 is 16 nM.

And the GI50 [6]?
Its GI50 is 9.4 nM.

And the half-life [16]?
Its half-life is 0.52 min.

For `CC(O/C(=N\OC[C@H](O)CO)c1ccc(F)c(F)c1Nc1ccc(I)cc1F)c1cc2c(cc1[N+](=O)[O-])OCO2` (some centres undefined), which GI50 [1] is on record?
Its GI50 is 3610 nM.

What about the GI50 [4] of the same molecule?
Its GI50 is 28.6 nM.

What about the GI50 [5] of the same molecule?
Its GI50 is 9.7 nM.

What about the GI50 [6] of the same molecule?
Its GI50 is 7.17 nM.

And the GI50 [7]?
The GI50 was over 10000 nM.

What about the GI50 [8] of the same molecule?
The GI50 was 169 nM.

What about the GI50 [9] of the same molecule?
Its GI50 is over 10000 nM.

And the GI50 [10]?
The GI50 was 478 nM.

And the GI50 at 72 h [11]?
The GI50 at 72 h was over 10000 nM.

What about the half-life [16] of the same molecule?
The half-life was 1.26 min.

And the Drug metabolism [17]?
Its Drug metabolism is “Metabolite_Detected”.

What does the source list for `COc1cc(CN(c2ccc(I)cc2F)c2c(C(=O)NOC[C@H](O)CO)ccc(F)c2F)c([N+](=O)[O-])cc1OC`?
GI50 [1]: 18.1 nM; GI50 [4]: 9.95 nM; GI50 [5]: 3.76 nM; GI50 [6]: 5.59 nM; degraded at 12 h [18]: > 30%; half-life [16]: 0.19 min

For `COc1cc(CO/C(=N\OC[C@H](O)CO)c2ccc(F)c(F)c2Nc2ccc(I)cc2F)c([N+](=O)[O-])cc1OC`, which GI50 [1] is on record?
The GI50 was 1170 nM.

What about the GI50 [4] of the same molecule?
Its GI50 is 272 nM.

And the GI50 [5]?
The GI50 was 82.8 nM.

And the GI50 [6]?
The GI50 was 82.2 nM.

What about the GI50 [7] of the same molecule?
Its GI50 is 1920 nM.

And the GI50 [8]?
The GI50 was 1050 nM.

What about the GI50 [9] of the same molecule?
The GI50 was over 10000 nM.

What about the GI50 [10] of the same molecule?
Its GI50 is 1890 nM.

What about the GI50 at 72 h [11] of the same molecule?
Its GI50 at 72 h is over 10000 nM.

And the half-life [16]?
Its half-life is 1.71 min.

Which GI50 [1] does the source give for `COc1ccc(CN(c2ccc(I)cc2F)c2c(C(=O)NOC[C@H](O)CO)ccc(F)c2F)cc1OC` here?
Its GI50 is 1520 nM.

Which GI50 [1] does the source give for `COc1cc(C(C)OC(=O)[C@H](C)NC(=O)OC(C)(C)C)c([N+](=O)[O-])cc1OC` (some centres undefined) here?
The GI50 was over 100000 nM.

And the GI50 [2]?
Its GI50 is over 100 nM.

And the GI50 at 72 h [3]?
The GI50 at 72 h was over 100000 nM.

For `CCN(CC)c1ccc2c(COC(=O)[C@H](C)NC(=O)OC(C)(C)C)cc(=O)oc2c1`, which GI50 [1] is on record?
Its GI50 is over 100000 nM.

What about the GI50 [2] of the same molecule?
The GI50 was 15.8 nM.

And the GI50 at 72 h [3]?
The GI50 at 72 h was over 100000 nM.

What does the source list for `CCN(CC)c1ccc2c(CO/C(=N\OC[C@H](O)CO)c3ccc(F)c(F)c3Nc3ccc(I)cc3F)cc(=O)oc2c1`?
IC50 [19]: > 30000 nM; GI50 [1]: 9800 nM; GI50 [4]: 222 nM; GI50 [5]: 123 nM; GI50 [6]: 108 nM; GI50 [7]: 1500 nM; GI50 [8]: 1750 nM; GI50 [9]: > 10000 nM; GI50 [10]: 270 nM; GI50 at 72 h [11]: > 10000 nM; fold change (FC) [20]: > 5085; half-life [16]: 0.2 min; Drug recovery [21]: < 10%

For `O=C(NOCCO)c1ccc(F)c(F)c1Nc1ccc(I)cc1F`, which GI50 [1] is on record?
The GI50 was 3.36 nM.

With `COc1cc(COC(=O)[C@H](C)NC(=O)OC(C)(C)C)c([N+](=O)[O-])cc1OC` as the molecule, how does the GI50 [1] read?
Its GI50 is over 100000 nM.

What about the GI50 [2] of the same molecule?
Its GI50 is over 100 nM.

What about the GI50 at 72 h [3] of the same molecule?
The GI50 at 72 h was over 100000 nM.

Which GI50 [1] does the source give for `O=[N+]([O-])c1cc2c(cc1CO/C(=N\OC[C@H](O)CO)c1ccc(F)c(F)c1Nc1ccc(I)cc1F)OCO2` here?
The GI50 was 605 nM.

And the GI50 [4]?
Its GI50 is 128 nM.

And the GI50 [5]?
Its GI50 is 36.7 nM.

And the GI50 [6]?
The GI50 was 40.3 nM.

And the GI50 [7]?
Its GI50 is over 10000 nM.

And the GI50 [8]?
Its GI50 is 236 nM.

What about the GI50 [9] of the same molecule?
The GI50 was over 10000 nM.

What about the GI50 [10] of the same molecule?
The GI50 was 896 nM.

And the GI50 at 72 h [11]?
The GI50 at 72 h was over 10000 nM.

What about the half-life [16] of the same molecule?
Its half-life is 1.68 min.

What about the Drug metabolism [17] of the same molecule?
Its Drug metabolism is “Metabolite_Detected”.
